Data published in ChEMBL document CHEMBL3603826, “6-Arylpyrazine-2-carboxamides: A New Core for Trypanosoma brucei Inhibitors” (J Med Chem, 2015).
Values after ≈ are worked out from the molar mass of the structure shown.

Tests used:
[1] = tested on: Trypanosoma brucei brucei; experiment: Anti-parasitic activity against Trypanosoma brucei brucei 427 bloodstream parasites incubated for 48 hrs by alamar blue dye based assay; assay type: functional, organism-based; details: Trypanosoma brucei, 427, 48 h
[2] = Toxicity against rat L6 cells incubated for 70 hrs by alamar blue dye based assay; assay type: cell-based
[3] = tested on: Trypanosoma brucei rhodesiense; experiment: Anti-parasitic activity against Trypanosoma brucei rhodesiense STIB 900 trypomastigotes incubated for 70 hrs by alamar blue dye based assay; assay type: functional, organism-based; details: STIB 900, 70 h
Plasmodium falciparum = experiment: Anti-parasitic activity against chloroquine and pyrimethamine resistant Plasmodium falciparum K1 erythrocytic stages infected in human erythrocytes incubated for 48 hrs by [3H]-hypoxanthine incorporation assay; assay type: functional, organism-based
[4] = Selectivity index, ratio of cytotoxic IC50 for HEK293 cells to EC50 for anti-parasitic activity against Trypanosoma brucei brucei 427 bloodstream parasites; assay type: toxicity, cell-based; details: human, read-out: Ratio IC50/EC50
[5] = Selectivity index, ratio of cytotoxic IC50 for rat L6 cells to EC50 for anti-parasitic activity against Trypanosoma brucei rhodesiense STIB 900; assay type: toxicity, cell-based; details: read-out: Ratio IC50/EC50
Trypanosoma cruzi = experiment: Anti-parasitic activity against Trypanosoma cruzi Tulahuen C2C4 trypomastigotes infected rat L6 cells incubated for 96 hrs by CPRG/nonidet substrate based […]; assay type: functional, organism-based; details: Tulahuen C2C4, L6, 96 h
Leishmania donovani = experiment: Anti-parasitic activity against Leishmania donovani MHOM/ET/67/L82 axenic amastigotes incubated for 70 hrs by alamar blue dye based assay; assay type: functional, organism-based; details: MHOM/ET/67/L82, 70 h
[6] = Stability assessed as degradation half life; assay type: physicochemical
[7] = Kinetic solubility in pH 2.0 0.01M HCl buffer by nephelometry; assay type: physicochemical; details: read-out: Kinetic_solubility
[8] = Kinetic solubility in pH 6.5 phosphate buffer by nephelometry; assay type: physicochemical; details: read-out: Kinetic_solubility
serum albumin = serum albumin (Homo sapiens, UniProt P02768); experiment: Binding affinity to human serum albumin by chromatographic method; assay type: ADME; details: read-out: PB (converted)
[9] = Partition coefficient, logD of the compound at pH 7.4 by HPLC method; assay type: physicochemical; details: octanol/water
[10] = Intrinsic clearance in human liver microsomes assessed per mg protein at pH 7.4 at 0.5 uM in presence of NADPH regenerating system by LC-MS method; assay type: ADME; details: read-out: CLH

Chain of serum albumin (P02768 whole entry): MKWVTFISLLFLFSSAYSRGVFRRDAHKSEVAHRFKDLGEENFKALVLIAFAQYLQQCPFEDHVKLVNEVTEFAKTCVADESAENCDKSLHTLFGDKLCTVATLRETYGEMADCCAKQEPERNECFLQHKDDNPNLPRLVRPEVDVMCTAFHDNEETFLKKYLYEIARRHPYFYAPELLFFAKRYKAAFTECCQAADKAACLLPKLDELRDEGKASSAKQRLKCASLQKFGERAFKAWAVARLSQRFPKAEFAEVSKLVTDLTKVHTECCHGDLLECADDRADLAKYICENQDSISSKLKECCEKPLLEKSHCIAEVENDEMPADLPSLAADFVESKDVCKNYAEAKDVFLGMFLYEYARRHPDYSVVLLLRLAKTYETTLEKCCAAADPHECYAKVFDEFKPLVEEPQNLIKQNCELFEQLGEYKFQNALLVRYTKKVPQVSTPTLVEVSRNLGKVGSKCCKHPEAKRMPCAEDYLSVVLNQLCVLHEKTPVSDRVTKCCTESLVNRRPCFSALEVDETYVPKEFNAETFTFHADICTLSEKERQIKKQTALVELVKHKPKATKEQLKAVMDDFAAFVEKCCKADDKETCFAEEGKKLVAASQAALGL

| Structure (SMILES) | EC50 [1] | selectivity ratio [4] | further results |
| --- | --- | --- | --- |
| Nc1ncc(-c2ccccc2)nc1C(=O)Nc1ccccc1 | > 10 µM | – | – |
| CCC(C)NC(=O)c1nc(-c2ccccc2)cnc1N (configuration not stated) | 0.49 µM | > 263 | IC50 at 70 h [2]: 18 µM; EC50 [3]: 0.97 µM; EC50 (Plasmodium falciparum): 11 µM; selectivity ratio [5]: 19; EC50 (Trypanosoma cruzi): 19 µM; EC50 (Leishmania donovani): > 10 µM |
| CCC(CC)NC(=O)c1nc(-c2cc(C)cc(Cl)c2)cnc1N | 0.77 µM | 50 | – |
| CC(C)NC(=O)c1nc(-c2ccccc2)cnc1N | 2.6 µM | > 33 | – |
| CCC(CC)NC(=O)c1nc(-c2ccccc2)cnc1N | 0.32 µM | > 263 | half-life [6]: 13 min; solubility kinetic [7]: 6.3 µg/mL (≈ 22.2 µM); solubility kinetic [8]: 3.1 µg/mL (≈ 10.9 µM); fraction unbound (serum albumin): 0.05; logD [9]: 4.3; microsomal CLint at 0.5 µM [10]: 133 µL/min/mg |
| CNC(=O)c1nc(-c2ccccc2)cnc1N | > 10 µM | – | – |
| CCCCCNC(=O)c1nc(-c2ccccc2)cnc1N | 1.7 µM | 50 | – |
| CCCC(C)NC(=O)c1nc(-c2ccccc2)cnc1N (configuration not stated) | 0.53 µM | > 156 | – |
| Nc1ncc(-c2ccccc2)nc1C(=O)NCCCCO | 7.3 µM | > 11 | – |
| Nc1ncc(-c2ccccc2)nc1C(=O)NCCO | > 10 µM | – | – |
| Nc1ncc(-c2ccccc2)nc1C(=O)NCCN1CCCC1 | > 10 µM | – | – |
| Nc1ncc(-c2ccccc2)nc1C(=O)NCCc1ccccc1 | > 10 µM | – | – |
| Nc1ncc(-c2ccccc2)nc1C(=O)NCCN1CCOCC1 | > 10 µM | – | – |
| Nc1ncc(-c2ccccc2)nc1C(=O)NCc1ccccc1 | 2.6 µM | 32 | – |
| CC(C)(C)NC(=O)c1nc(-c2ccccc2)cnc1N | 3 µM | > 14 | half-life [6]: 7 min; solubility kinetic [7]: < 1.6 µg/mL; solubility kinetic [8]: < 1.6 µg/mL; fraction unbound (serum albumin): 0.015; logD [9]: 4.3; microsomal CLint at 0.5 µM [10]: 246 µL/min/mg |
| Nc1ncc(-c2ccccc2)nc1C(=O)N1CCCC1 | 6.1 µM | > 14 | – |
| Nc1ncc(-c2ccccc2)nc1C(=O)N1CCCCC1 | 4.6 µM | > 18 | – |
| Nc1ncc(-c2ccccc2)nc1C(=O)N1CCOCC1 | > 10 µM | – | – |
| CCC(C)NC(=O)c1nc(-c2ccccc2F)cnc1N (configuration not stated) | 0.75 µM | 111 | – |
| CCC(C)NC(=O)c1nc(-c2ccccc2Cl)cnc1N (configuration not stated) | 1.1 µM | 76 | – |
| CCC(C)NC(=O)c1nc(-c2ccccc2Br)cnc1N (configuration not stated) | > 10 µM | – | – |
| CCC(C)NC(=O)c1nc(-c2ccccc2OC)cnc1N (configuration not stated) | 5.4 µM | > 15.4 | – |
| CCC(C)NC(=O)c1nc(-c2ccccc2[N+](=O)[O-])cnc1N (configuration not stated) | 0.89 µM | 94 | – |
| CCC(C)NC(=O)c1nc(-c2ccccc2N)cnc1N (configuration not stated) | > 10 µM | – | – |
| CCC(C)NC(=O)c1nc(-c2ccccc2C(C)=O)cnc1N (configuration not stated) | 10 µM | 7.9 | – |
| CCC(C)NC(=O)c1nc(-c2ccccc2C)cnc1N (configuration not stated) | 1.2 µM | > 71 | – |
| CCC(C)NC(=O)c1nc(-c2ccccc2C#N)cnc1N (configuration not stated) | 0.35 µM | > 239 | IC50 at 70 h [2]: 18 µM; half-life [6]: 14 min; solubility kinetic [7]: 1.6 µg/mL (≈ 5.42 µM); solubility kinetic [8]: 1.6 µg/mL (≈ 5.42 µM); EC50 [3]: 0.64 µM; EC50 (Plasmodium falciparum): 3.6 µM; EC50 (Trypanosoma cruzi): 11 µM; fraction unbound (serum albumin): 0.05; logD [9]: 3.6; microsomal CLint at 0.5 µM [10]: 122 µL/min/mg; EC50 (Leishmania donovani): > 10 µM |
| CCC(C)NC(=O)c1nc(-c2cccc(F)c2)cnc1N (configuration not stated) | 0.82 µM | 102 | – |

| Structure (SMILES) | EC50 [1] | selectivity ratio [4] | further results |
| --- | --- | --- | --- |
| CCC(C)NC(=O)c1nc(-c2cccc(Br)c2)cnc1N (configuration not stated) | 0.57 µM | 147 | – |
| CCC(C)NC(=O)c1nc(-c2cccc(OC)c2)cnc1N (configuration not stated) | 0.41 µM | > 201 | – |
| CCC(C)NC(=O)c1nc(-c2cccc([N+](=O)[O-])c2)cnc1N (configuration not stated) | 0.45 µM | 185 | – |
| CCC(C)NC(=O)c1nc(-c2cccc(N)c2)cnc1N (configuration not stated) | 1.1 µM | > 77.8 | – |
| CCC(C)NC(=O)c1nc(-c2cccc(C(C)=O)c2)cnc1N (configuration not stated) | > 10 µM | – | – |
| CCC(C)NC(=O)c1nc(-c2cccc(C)c2)cnc1N (configuration not stated) | 0.17 µM | > 495 | IC50 at 70 h [2]: 43 µM; EC50 [3]: 0.13 µM; EC50 (Plasmodium falciparum): 19 µM; selectivity ratio [5]: 340; EC50 (Trypanosoma cruzi): 25 µM; EC50 (Leishmania donovani): > 10 µM |
| CCC(C)NC(=O)c1nc(-c2cccc(C#N)c2)cnc1N (configuration not stated) | 2.7 µM | > 30.5 | – |
| CCC(C)NC(=O)c1nc(-c2ccc(Cl)cc2)cnc1N (configuration not stated) | 0.68 µM | 122 | half-life [6]: 36 min; solubility kinetic [7]: 3.1 µg/mL (≈ 10.2 µM); solubility kinetic [8]: 1.6 µg/mL (≈ 5.25 µM); fraction unbound (serum albumin): 0.03; logD [9]: 4.5; microsomal CLint at 0.5 µM [10]: 48 µL/min/mg |
| CCC(C)NC(=O)c1nc(-c2ccc(Br)cc2)cnc1N (configuration not stated) | 2.2 µM | 38 | – |
| CCC(C)NC(=O)c1nc(-c2ccc(OC)cc2)cnc1N (configuration not stated) | 1.3 µM | > 63.9 | – |
| CCC(C)NC(=O)c1nc(-c2ccc([N+](=O)[O-])cc2)cnc1N (configuration not stated) | 4.5 µM | > 18.5 | – |
| CCC(C)NC(=O)c1nc(-c2ccc(N)cc2)cnc1N (configuration not stated) | 2.9 µM | > 28.4 | – |
| CCC(C)NC(=O)c1nc(-c2ccc(C(C)=O)cc2)cnc1N (configuration not stated) | 4.7 µM | 8.8 | – |
| CCC(C)NC(=O)c1nc(-c2ccc(C)cc2)cnc1N (configuration not stated) | 3.74 µM | 22 | – |
| CCC(C)NC(=O)c1nc(-c2ccc(C#N)cc2)cnc1N (configuration not stated) | 2.7 µM | > 30.4 | – |
| CCC(CC)NC(=O)c1nc(-c2ccccc2C#N)cnc1N | 0.17 µM | 488 | IC50 at 70 h [2]: 10 µM; EC50 [3]: 0.13 µM; EC50 (Plasmodium falciparum): 4.8 µM; selectivity ratio [5]: 80; EC50 (Trypanosoma cruzi): 15 µM; EC50 (Leishmania donovani): > 10 µM |
| CCC(CC)NC(=O)c1nc(-c2cc(C)cc(C)c2)cnc1N | 0.48 µM | 173 | – |
| CCC(CC)NC(=O)c1nc(-c2cccc(C(F)(F)F)c2)cnc1N | 0.26 µM | 80 | – |
| CCC(CC)NC(=O)c1nc(-c2cccc(Cl)c2)cnc1N | 0.36 µM | 110 | – |
| CCC(CC)NC(=O)c1nc(-c2ccc(F)c(Cl)c2)cnc1N | 0.22 µM | 190 | – |
| Nc1ncc(-c2ccc(F)cc2)nc1C(=O)NC1CCCC1 | 0.071 µM | 590 | – |
| Cc1cc(-c2cnc(N)c(C(=O)NC3CCCC3)n2)ccc1F | 0.024 µM | 3540 | – |
| N#Cc1cc(F)ccc1-c1cnc(N)c(C(=O)NC2CCCC2)n1 | 0.057 µM | 1470 | – |
| Nc1ncc(-c2cccc(C(F)(F)F)c2)nc1C(=O)NC1CCCC1 | 0.15 µM | 560 | – |
| Nc1ncc(-c2cccc(Cl)c2)nc1C(=O)NC1CCCC1 | 0.24 µM | 340 | – |
| Cc1cc(Cl)cc(-c2cnc(N)c(C(=O)NC3CCCC3)n2)c1 | 0.5 µM | 170 | – |
| Nc1ncc(-c2ccc(F)c(Cl)c2)nc1C(=O)NC1CCCC1 | 0.11 µM | 190 | – |
